Laboratory results taken from patent US20230085307A1, “PYRIDAZINONE COMPOUND AND HERBICIDE” (NISSAN CHEMICAL CORPORATION, priority 2019, published 2023).

Columns and labels:
barnyard grass [1] = assay: Test Example 3: herbicidal effect by foliage application, Wagner pot (Table 18, symbol H); format: in vivo, barnyard grass (Echinochloa crus-galli); conditions: for herbicidal effect on H: barnyard grass: amount of applied herbicide 320 g/ha
Summary of the method: (§1)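 Plants were sown in alluvial soil held under 0.1–0.5 cm standing water and grown 14 days in a greenhouse at 25–30 °C. An emulsifiable formulation, water-diluted to the set dose, was then sprayed onto the foliage, and effects were scored three weeks later using previously defined criteria.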

wild oat [2] = assay: Test Example 4: herbicidal effect by soil treatment (Table 19, symbol I); format: in vivo, wild oat (Avena fatua); conditions: for herbicidal effect, I: wild oat: amount of applied herbicide 320 g/ha
Summary of the method: (§2)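 Emulsion of test compound, water-diluted to predetermined amount, sprayed on soil after sowing (seed depth ~1.5 cm, sterilized diluvial soil). Greenhouse, 25–30° C. Effect graded at three weeks post-spray.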

blackgrass [3] = assay: Test Example 4: herbicidal effect by soil treatment (Table 19, symbol J); format: in vivo, blackgrass (Alopecurus myosuroides); conditions: for herbicidal effect, J: blackgrass: amount of applied herbicide 320 g/ha
Summary of the method: as §2

wild oat [4] = assay: Test Example 5: herbicidal effect by foliage application, plastic box (Table 20, symbol I); format: in vivo, wild oat (Avena fatua); conditions: foliage application, 320 g/ha, 3 weeks after application
Summary of the method: (§3)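 Post-emergence foliar test in sterilized diluvial soil. Compound applied as water-diluted emulsion at a predetermined rate to 14-day-old plants; evaluation at three weeks.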

southern crabgrass [5] = assay: Test Example 5: herbicidal effect by foliage application, plastic box (Table 20, symbol F); format: in vivo, southern crabgrass (Digitaria ciliaris); conditions: foliage application, 320 g/ha, 3 weeks after application
Summary of the method: as §3

lambsquarters [6] = assay: Test Example 5: herbicidal effect by foliage application, plastic box (Table 20, symbol O); format: in vivo, lambsquarters (Chenopodium album); conditions: foliage application, 320 g/ha, 3 weeks after application
Summary of the method: as §3

barnyard grass [7] = assay: Test Example 5: herbicidal effect by foliage application, plastic box (Table 20, symbol H); format: in vivo, barnyard grass (Echinochloa crus-galli); conditions: foliage application, 320 g/ha, 3 weeks after application
Summary of the method: as §3

velvetleaf [8] = assay: Test Example 5: herbicidal effect by foliage application, plastic box (Table 20, symbol M); format: in vivo, velvetleaf (Abutilon theophrasti); conditions: foliage application, 320 g/ha, 3 weeks after application
Summary of the method: as §3

blackgrass [9] = assay: Test Example 5: herbicidal effect by foliage application, plastic box (Table 20, symbol J); format: in vivo, blackgrass (Alopecurus myosuroides); conditions: foliage application, 320 g/ha, 3 weeks after application
Summary of the method: as §3

Chinese sprangletop = assay: Test Example 3: herbicidal effect by foliage application, Wagner pot (Table 18, symbol D); format: in vivo, chinese sprangletop (Leptochloa chinensis); conditions: for herbicidal effect on D: Chinese sprangletop: amount of applied herbicide 320 g/ha
Summary of the method: as §1

Italian ryegrass [10] = assay: Test Example 4: herbicidal effect by soil treatment (Table 19, symbol K); format: in vivo, Italian ryegrass (Lolium multiflorum); conditions: for herbicidal effect, K: Italian ryegrass: amount of applied herbicide 320 g/ha
Summary of the method: as §2

persian speedwell [11] = assay: Test Example 5: herbicidal effect by foliage application, plastic box (Table 20, symbol R); format: in vivo, Persian speedwell (Veronica persica); conditions: foliage application, 320 g/ha, 3 weeks after application
Summary of the method: as §3

Italian ryegrass [12] = assay: Test Example 5: herbicidal effect by foliage application, plastic box (Table 20, symbol K); format: in vivo, Italian ryegrass (Lolium multiflorum); conditions: foliage application, 320 g/ha, 3 weeks after application
Summary of the method: as §3

green foxtail [13] = assay: Test Example 5: herbicidal effect by foliage application, plastic box (Table 20, symbol G); format: in vivo, green foxtail (Setaria viridis); conditions: foliage application, 320 g/ha, 3 weeks after application
Summary of the method: as §3

rice flat sedge = assay: Test Example 3: herbicidal effect by foliage application, Wagner pot (Table 18, symbol E); format: in vivo, rice flat sedge (Cyperus iria); conditions: for herbicidal effect on E: rice flat sedge: amount of applied herbicide 320 g/ha
Summary of the method: as §1

windgrass [14] = assay: Test Example 5: herbicidal effect by foliage application, plastic box (Table 20, symbol L); format: in vivo, windgrass (Apera spica-venti); conditions: foliage application, 320 g/ha, 3 weeks after application
Summary of the method: as §3

persian speedwell [15] = assay: Test Example 4: herbicidal effect by soil treatment (Table 19, symbol R); format: in vivo, Persian speedwell (Veronica persica); conditions: for herbicidal effect, R: persian speedwell: amount of applied herbicide 320 g/ha
Summary of the method: as §2

chickweed = assay: Test Example 4: herbicidal effect by soil treatment (Table 19, symbol P); format: in vivo, common chickweed (Stellaria media); conditions: for herbicidal effect, P: chickweed: amount of applied herbicide 320 g/ha
Summary of the method: as §2

windgrass [16] = assay: Test Example 4: herbicidal effect by soil treatment (Table 19, symbol L); format: in vivo, windgrass (Apera spica-venti); conditions: for herbicidal effect, L: windgrass: amount of applied herbicide 320 g/ha
Summary of the method: as §2

lambsquarters [17] = assay: Test Example 4: herbicidal effect by soil treatment (Table 19, symbol O); format: in vivo, lambsquarters (Chenopodium album); conditions: amount of applied herbicide 320 g/ha
Summary of the method: as §2

green foxtail [18] = assay: Test Example 4: herbicidal effect by soil treatment (Table 19, symbol G); format: in vivo, green foxtail (Setaria viridis); conditions: amount of applied herbicide 320 g/ha
Summary of the method: as §2

barnyard grass [19] = assay: Test Example 4: herbicidal effect by soil treatment (Table 19, symbol H); format: in vivo, barnyard grass (Echinochloa crus-galli); conditions: amount of applied herbicide 320 g/ha
Summary of the method: as §2

southern crabgrass [20] = assay: Test Example 4: herbicidal effect by soil treatment (Table 19, symbol F); format: in vivo, southern crabgrass (Digitaria ciliaris); conditions: amount of applied herbicide 320 g/ha
Summary of the method: as §2

redroot pigweed = assay: Test Example 4: herbicidal effect by soil treatment (Table 19, symbol N); format: in vivo, redroot pigweed (Amaranthus retroflexus); conditions: amount of applied herbicide 320 g/ha
Summary of the method: as §2

velvetleaf [21] = assay: Test Example 4: herbicidal effect by soil treatment (Table 19, symbol M); format: in vivo, velvetleaf (Abutilon theophrasti); conditions: amount of applied herbicide 320 g/ha
Summary of the method: as §2

| SMILES | herbicidal effect on H: barnyard grass (barnyard grass [1]) | herbicidal effect, O: lambsquarters (lambsquarters [17]) | herbicidal effect, I: wild oat (wild oat [2]) | herbicidal effect, J: blackgrass (blackgrass [3]) | herbicidal effect, G: green foxtail (green foxtail [18]) | herbicidal effect, H: barnyard grass (barnyard grass [19]) | herbicidal effect, F: southern crabgrass (southern crabgrass [20]) | herbicidal effect, N: redroot pigweed (redroot pigweed) | herbicidal effect on D: Chinese sprangletop (Chinese sprangletop) | herbicidal effect, K: Italian ryegrass (Italian ryegrass [10]) | herbicidal effect on E: rice flat sedge (rice flat sedge) | herbicidal effect, R: persian speedwell (persian speedwell [15]) | herbicidal effect, M: velvetleaf (velvetleaf [21]) | herbicidal effect, P: chickweed (chickweed) | herbicidal effect, L: windgrass (windgrass [16]) | further results |
| --- | --- | --- | --- | --- | --- | --- | --- | --- | --- | --- | --- | --- | --- | --- | --- | --- |
| COc1nn(C)c(=O)c(-c2c(-c3cc4ccccc4s3)sc3ccccc23)c1O [1-196] | – | – | – | – | – | – | – | – | – | – | – | – | – | – | – | herbicidal effect on H (barnyard grass), rating 0-5 (barnyard grass [1]; 320 g/ha): 3 (Herbicidal rate of 40% or more and less than 70%); I: wild oat, herbicidal effect rating (wild oat [2]; AAH 320 g/ha): 0 (Herbicidal rate of 5% or less (almost no effect)); J: blackgrass, herbicidal effect rating (blackgrass [3]; AAH 320 g/ha): 0 (Herbicidal rate of 5% or less (almost no effect)); effect on wild oat (I) (wild oat [4]): 0 (Herbicidal rate of 5% or less (almost no effect)); effect on southern crabgrass (F) (southern crabgrass [5]): 0 (Herbicidal rate of 5% or less (almost no effect)); effect on lambsquarters (O) (lambsquarters [6]): 5 (Herbicidal rate of 90% or more (almost completely withered)); effect on barnyard grass (H) (barnyard grass [7]): 0 (Herbicidal rate of 5% or less (almost no effect)); effect on velvetleaf (M) (velvetleaf [8]): 3 (Herbicidal rate of 40% or more and less than 70%); effect on blackgrass (J) (blackgrass [9]): 0 (Herbicidal rate of 5% or less (almost no effect)); herbicidal effect on D (Chinese sprangletop), rating 0-5 (Chinese sprangletop; 320 g/ha): 0 (Herbicidal rate of 5% or less (almost no effect)); K: Italian ryegrass, herbicidal effect rating (Italian ryegrass [10]; AAH 320 g/ha): 4 (Herbicidal rate of 70% or more and less than 90%); effect on persian speedwell (R) (persian speedwell [11]): 5 (Herbicidal rate of 90% or more (almost completely withered)); effect on Italian ryegrass (K) (Italian ryegrass [12]): 3 (Herbicidal rate of 40% or more and less than 70%); effect on green foxtail (G) (green foxtail [13]): 0 (Herbicidal rate of 5% or less (almost no effect)); herbicidal effect on E (rice flat sedge), rating 0-5 (rice flat sedge; 320 g/ha): 5 (Herbicidal rate of 90% or more (almost completely withered)); effect on windgrass (L) (windgrass [14]): 0 (Herbicidal rate of 5% or less (almost no effect)); R: persian speedwell, herbicidal effect rating (persian speedwell [15]; AAH 320 g/ha): 5 (Herbicidal rate of 90% or more (almost completely withered)); P: chickweed, herbicidal effect rating (chickweed; AAH 320 g/ha): 5 (Herbicidal rate of 90% or more (almost completely withered)); L: windgrass, herbicidal effect rating (windgrass [16]; AAH 320 g/ha): 0 (Herbicidal rate of 5% or less (almost no effect)) |
| Cc1nn(C)c(=O)c(-c2c(-c3ccc(C(F)(F)F)cc3F)sc3ccc(F)cc23)c1O [2-354] | 5 (Herbicidal rate of 90% or more (almost completely withered)) | 3 (Herbicidal rate of 40% or more and less than 70%) | 0 (Herbicidal rate of 5% or less (almost no effect)) | 0 (Herbicidal rate of 5% or less (almost no effect)) | 1 (Herbicidal rate of 5% or more and less than 20%) | 0 (Herbicidal rate of 5% or less (almost no effect)) | 0 (Herbicidal rate of 5% or less (almost no effect)) | 3 (Herbicidal rate of 40% or more and less than 70%) | 5 (Herbicidal rate of 90% or more (almost completely withered)) | 0 (Herbicidal rate of 5% or less (almost no effect)) | 5 (Herbicidal rate of 90% or more (almost completely withered)) | 4 (Herbicidal rate of 70% or more and less than 90%) | 0 (Herbicidal rate of 5% or less (almost no effect)) | 1 (Herbicidal rate of 5% or more and less than 20%) | 0 (Herbicidal rate of 5% or less (almost no effect)) | – |
| COc1cccc(-c2sc3ccc(F)cc3c2-c2c(O)c(C)nn(C)c2=O)c1F [2-362] | 3 (Herbicidal rate of 40% or more and less than 70%) | 3 (Herbicidal rate of 40% or more and less than 70%) | 0 (Herbicidal rate of 5% or less (almost no effect)) | 0 (Herbicidal rate of 5% or less (almost no effect)) | 0 (Herbicidal rate of 5% or less (almost no effect)) | 0 (Herbicidal rate of 5% or less (almost no effect)) | 0 (Herbicidal rate of 5% or less (almost no effect)) | 1 (Herbicidal rate of 5% or more and less than 20%) | 0 (Herbicidal rate of 5% or less (almost no effect)) | 2 (Herbicidal rate of 20% or more and less than 40%) | 3 (Herbicidal rate of 40% or more and less than 70%) | 0 (Herbicidal rate of 5% or less (almost no effect)) | 0 (Herbicidal rate of 5% or less (almost no effect)) | 0 (Herbicidal rate of 5% or less (almost no effect)) | 0 (Herbicidal rate of 5% or less (almost no effect)) | – |
| COc1ccc(-c2sc3ccc(F)cc3c2-c2c(O)c(C)nn(C)c2=O)c(F)c1 [2-364] | 4 (Herbicidal rate of 70% or more and less than 90%) | 4 (Herbicidal rate of 70% or more and less than 90%) | 0 (Herbicidal rate of 5% or less (almost no effect)) | 0 (Herbicidal rate of 5% or less (almost no effect)) | 0 (Herbicidal rate of 5% or less (almost no effect)) | 0 (Herbicidal rate of 5% or less (almost no effect)) | 0 (Herbicidal rate of 5% or less (almost no effect)) | 1 (Herbicidal rate of 5% or more and less than 20%) | 4 (Herbicidal rate of 70% or more and less than 90%) | 0 (Herbicidal rate of 5% or less (almost no effect)) | 5 (Herbicidal rate of 90% or more (almost completely withered)) | 0 (Herbicidal rate of 5% or less (almost no effect)) | 0 (Herbicidal rate of 5% or less (almost no effect)) | 0 (Herbicidal rate of 5% or less (almost no effect)) | 0 (Herbicidal rate of 5% or less (almost no effect)) | – |
| CCCC(=O)Oc1c(C)nn(C)c(=O)c1-c1c(-c2ccc(OC)cc2F)sc2ccc(F)cc12 [2-365] | 4 (Herbicidal rate of 70% or more and less than 90%) | 1 (Herbicidal rate of 5% or more and less than 20%) | 0 (Herbicidal rate of 5% or less (almost no effect)) | 0 (Herbicidal rate of 5% or less (almost no effect)) | 0 (Herbicidal rate of 5% or less (almost no effect)) | 0 (Herbicidal rate of 5% or less (almost no effect)) | 0 (Herbicidal rate of 5% or less (almost no effect)) | 3 (Herbicidal rate of 40% or more and less than 70%) | 5 (Herbicidal rate of 90% or more (almost completely withered)) | 0 (Herbicidal rate of 5% or less (almost no effect)) | 5 (Herbicidal rate of 90% or more (almost completely withered)) | 0 (Herbicidal rate of 5% or less (almost no effect)) | 0 (Herbicidal rate of 5% or less (almost no effect)) | 0 (Herbicidal rate of 5% or less (almost no effect)) | 0 (Herbicidal rate of 5% or less (almost no effect)) | – |
